For series [1], the target named is Tyrosine-protein kinase JAK1 (Homo sapiens, UniProt P23458). Description: Inhibition of recombinant human JAK1 using MGEEPLYWSFPAKKK as substrate incubated for 40 mins in presence of Mg/ATP mixture by [gamma p33]-ATP based scintillation counting method.
The target in series [2] is T1, Tyrosine-protein kinase JAK3 (Homo sapiens, UniProt P52333).
T1 sequence (P52333 whole entry): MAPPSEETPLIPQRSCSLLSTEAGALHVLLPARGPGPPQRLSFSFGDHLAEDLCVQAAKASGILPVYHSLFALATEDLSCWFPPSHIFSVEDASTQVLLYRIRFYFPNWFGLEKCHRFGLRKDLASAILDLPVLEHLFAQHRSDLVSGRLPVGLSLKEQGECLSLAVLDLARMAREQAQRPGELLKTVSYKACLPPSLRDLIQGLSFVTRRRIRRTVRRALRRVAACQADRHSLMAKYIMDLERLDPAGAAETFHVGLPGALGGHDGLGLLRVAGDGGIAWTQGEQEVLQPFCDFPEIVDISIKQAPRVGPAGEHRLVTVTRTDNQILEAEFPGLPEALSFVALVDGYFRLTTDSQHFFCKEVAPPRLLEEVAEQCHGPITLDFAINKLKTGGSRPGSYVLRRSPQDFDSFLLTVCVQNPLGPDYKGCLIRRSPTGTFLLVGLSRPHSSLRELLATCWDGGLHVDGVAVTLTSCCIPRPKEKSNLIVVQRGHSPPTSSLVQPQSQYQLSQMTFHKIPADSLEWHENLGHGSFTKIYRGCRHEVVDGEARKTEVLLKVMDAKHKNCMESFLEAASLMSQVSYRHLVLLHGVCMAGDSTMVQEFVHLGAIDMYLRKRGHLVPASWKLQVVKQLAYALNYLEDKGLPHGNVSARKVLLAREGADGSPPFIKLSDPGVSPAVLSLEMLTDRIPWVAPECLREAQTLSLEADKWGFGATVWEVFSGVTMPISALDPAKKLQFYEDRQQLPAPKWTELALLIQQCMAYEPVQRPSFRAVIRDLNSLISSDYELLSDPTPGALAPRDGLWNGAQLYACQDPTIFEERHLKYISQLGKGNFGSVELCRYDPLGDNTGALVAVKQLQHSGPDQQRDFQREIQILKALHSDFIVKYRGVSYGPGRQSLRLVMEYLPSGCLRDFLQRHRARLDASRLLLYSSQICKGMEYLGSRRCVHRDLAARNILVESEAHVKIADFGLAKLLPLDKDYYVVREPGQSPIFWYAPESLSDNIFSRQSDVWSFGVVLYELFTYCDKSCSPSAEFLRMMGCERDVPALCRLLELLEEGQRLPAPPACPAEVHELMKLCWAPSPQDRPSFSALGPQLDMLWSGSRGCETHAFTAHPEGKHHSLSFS
The series can be described thus: Inhibition of recombinant human JAK3 using GGEEEEYFELVKKKK as substrate incubated for 40 mins in presence of Mg/ATP mixture by [gamma p33]-ATP based scintillation counting method.

In series [3] the target is Non-receptor tyrosine-protein kinase TYK2 (Homo sapiens, UniProt P29597). The series can be described thus: Inhibition of recombinant human TYK2 using GGMEDIYFEFMGGKKK as substrate incubated for 40 mins in presence of Mg/ATP mixture by [gamma p33]-ATP based scintillation counting method.
Series [4] is described as follows: Apparent permeability across apical to basolateral side in human Caco-2 cells at 10 uM measured after 120 mins by LC-MS/MS analysis. To be noted: Caco-2. On the technique in general: Caco-2 cells form a polarised layer with tight junctions and transporters.
Series [5] can be described thus: Apparent permeability across basolateral to apical side in human Caco-2 cells at 10 uM measured after 120 mins by LC-MS/MS analysis.
A short description of series [6]: Efflux ratio of apparent permeability from basolateral to apical side over apical to basolateral side in human Caco-2 cells at 10 uM incubated for 120 mins by LC-MS/MS analysis.
Series [7] is described as follows: Plasma protein binding in human assessed as unbound fraction at 2 uM incubated for 4 hrs by LC/MS/MS based balanced dialysis method.
A short description of series [8]: Plasma protein binding in rat assessed as unbound fraction at 2 uM incubated for 4 hrs by LC/MS/MS based balanced dialysis method.
Series [9] can be described thus: Microsomal stability in rat liver microsomes assessed as intrinsic clearance at 1 uM incubated for 60 mins in presence of NADPH regenerating system by LC-MS/MS analysis. It counts as ADME, Microsome. To be noted: read-out: CLH. A general note: Microsomes from liver hold many membrane-bound enzymes, among them those of drug oxidation.
Series [10] can be described thus: Microsomal stability in human liver microsomes assessed as intrinsic clearance at 1 uM incubated for 60 mins in presence of NADPH regenerating system by LC-MS/MS analysis. It counts as ADME, Microsome. To be noted: read-out: CLH.
The nature of series [11]: Metabolic stability in mouse hepatocytes assessed as intrinsic clearance at 1 uM incubated for 90 mins by LC/MS/MS analysis. Format: ADME, cell-based, Hepatocyte.
The nature of series [12]: Metabolic stability in rat hepatocytes assessed as intrinsic clearance at 1 uM incubated for 90 mins by LC/MS/MS analysis. Format: ADME, cell-based, Hepatocyte.
The target in a further series is T2, Cytochrome P450 2C8 (Homo sapiens, UniProt P10632).
T2 sequence (P10632 whole entry): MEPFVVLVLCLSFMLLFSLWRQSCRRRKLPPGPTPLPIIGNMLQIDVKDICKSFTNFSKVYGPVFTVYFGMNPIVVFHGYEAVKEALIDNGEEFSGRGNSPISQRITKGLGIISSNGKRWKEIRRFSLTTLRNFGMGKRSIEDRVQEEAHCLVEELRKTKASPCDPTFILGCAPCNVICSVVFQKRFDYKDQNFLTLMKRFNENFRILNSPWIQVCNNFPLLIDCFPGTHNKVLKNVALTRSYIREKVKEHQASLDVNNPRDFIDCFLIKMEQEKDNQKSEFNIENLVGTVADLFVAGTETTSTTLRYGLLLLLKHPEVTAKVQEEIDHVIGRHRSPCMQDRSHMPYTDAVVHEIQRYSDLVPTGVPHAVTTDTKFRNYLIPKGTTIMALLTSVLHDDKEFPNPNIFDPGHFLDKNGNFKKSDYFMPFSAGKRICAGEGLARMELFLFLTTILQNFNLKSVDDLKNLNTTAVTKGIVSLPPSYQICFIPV
Description: Inhibition of CYP2C8 in human liver microsomes incubated in presence NADPH by LC-MS/MS analysis.

For the next series, the target named is Cytochrome P450 2C19 (Homo sapiens, UniProt P33261). Description: Inhibition of CYP2C19 in human liver microsomes incubated in presence NADPH by LC-MS/MS analysis.
The nature of series [13]: Elimination half life in C57BL/6 mouse at 15 mg/kg, po measured for 24 hrs by LC/MS/MS analysis. It counts as ADME, organism-based. To be noted: in vivo, read-out: beta t1/2 (converted).
The nature of series [14]: Clearance in C57BL/6 mouse at 2 mg/kg, iv measured for 24 hrs by LC/MS/MS analysis. Format: ADME, organism-based. To be noted: in vivo.
A short description of series [15]: AUC in C57BL/6 mouse at 15 mg/kg, po measured for 24 hrs by LC/MS/MS analysis. To be noted: in vivo. Also on record: dose 15 mg/kg, time 24 hrs, route po. Format: ADME, organism-based.
The test system of the next series is Mus musculus. Description: Antiarthritic activity in collagen-induced rheumatoid arthritis DBA/1 mouse model assessed as reduction in clinical score AUC at 15 mg/kg, po BID administered for 14 days starting from 7 days before immunization to 21 days after immunization and measured on day 41 post immunization. It counts as functional, organism-based. To be noted: time 14.0 day.

The next series is described as follows: in vivo. To be noted: C57BL/6, mouse, po, 15 mg/kg.

Calls of active or inactive are those of the source. The rule behind the calls is not given here. Where only a bound is given, the exact number is not on record here.

Tyrosine-protein kinase JAK1, sequence (P23458 whole entry): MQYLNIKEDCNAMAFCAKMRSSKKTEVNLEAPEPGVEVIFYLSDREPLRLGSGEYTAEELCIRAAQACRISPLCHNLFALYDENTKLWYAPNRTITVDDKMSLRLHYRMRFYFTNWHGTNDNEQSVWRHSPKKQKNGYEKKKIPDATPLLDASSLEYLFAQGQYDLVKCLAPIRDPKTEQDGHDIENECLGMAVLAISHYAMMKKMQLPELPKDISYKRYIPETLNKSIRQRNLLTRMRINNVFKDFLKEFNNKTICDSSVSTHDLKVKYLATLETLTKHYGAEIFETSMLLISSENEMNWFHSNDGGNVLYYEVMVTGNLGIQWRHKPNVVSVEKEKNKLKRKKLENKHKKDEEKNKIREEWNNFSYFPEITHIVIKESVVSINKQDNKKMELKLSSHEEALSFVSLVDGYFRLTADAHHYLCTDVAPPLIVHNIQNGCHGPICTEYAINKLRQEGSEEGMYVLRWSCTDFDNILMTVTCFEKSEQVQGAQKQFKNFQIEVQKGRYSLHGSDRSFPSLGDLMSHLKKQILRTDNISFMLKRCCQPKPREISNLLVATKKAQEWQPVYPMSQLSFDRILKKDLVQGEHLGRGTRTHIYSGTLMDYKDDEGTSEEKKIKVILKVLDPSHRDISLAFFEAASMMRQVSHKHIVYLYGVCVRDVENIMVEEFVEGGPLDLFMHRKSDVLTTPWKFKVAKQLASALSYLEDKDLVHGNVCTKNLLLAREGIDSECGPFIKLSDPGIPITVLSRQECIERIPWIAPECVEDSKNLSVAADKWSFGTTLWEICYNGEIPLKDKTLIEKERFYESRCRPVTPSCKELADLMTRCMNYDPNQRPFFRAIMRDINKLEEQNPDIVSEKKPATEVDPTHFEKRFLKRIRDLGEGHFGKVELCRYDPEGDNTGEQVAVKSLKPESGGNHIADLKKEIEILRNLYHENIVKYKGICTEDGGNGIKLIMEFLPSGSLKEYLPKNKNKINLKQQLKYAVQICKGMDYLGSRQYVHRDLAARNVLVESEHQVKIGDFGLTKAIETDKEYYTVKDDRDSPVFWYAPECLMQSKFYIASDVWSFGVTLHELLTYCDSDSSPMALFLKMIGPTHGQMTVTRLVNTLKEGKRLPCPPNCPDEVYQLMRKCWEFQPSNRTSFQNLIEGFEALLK
Non-receptor tyrosine-protein kinase TYK2, sequence (P29597 whole entry): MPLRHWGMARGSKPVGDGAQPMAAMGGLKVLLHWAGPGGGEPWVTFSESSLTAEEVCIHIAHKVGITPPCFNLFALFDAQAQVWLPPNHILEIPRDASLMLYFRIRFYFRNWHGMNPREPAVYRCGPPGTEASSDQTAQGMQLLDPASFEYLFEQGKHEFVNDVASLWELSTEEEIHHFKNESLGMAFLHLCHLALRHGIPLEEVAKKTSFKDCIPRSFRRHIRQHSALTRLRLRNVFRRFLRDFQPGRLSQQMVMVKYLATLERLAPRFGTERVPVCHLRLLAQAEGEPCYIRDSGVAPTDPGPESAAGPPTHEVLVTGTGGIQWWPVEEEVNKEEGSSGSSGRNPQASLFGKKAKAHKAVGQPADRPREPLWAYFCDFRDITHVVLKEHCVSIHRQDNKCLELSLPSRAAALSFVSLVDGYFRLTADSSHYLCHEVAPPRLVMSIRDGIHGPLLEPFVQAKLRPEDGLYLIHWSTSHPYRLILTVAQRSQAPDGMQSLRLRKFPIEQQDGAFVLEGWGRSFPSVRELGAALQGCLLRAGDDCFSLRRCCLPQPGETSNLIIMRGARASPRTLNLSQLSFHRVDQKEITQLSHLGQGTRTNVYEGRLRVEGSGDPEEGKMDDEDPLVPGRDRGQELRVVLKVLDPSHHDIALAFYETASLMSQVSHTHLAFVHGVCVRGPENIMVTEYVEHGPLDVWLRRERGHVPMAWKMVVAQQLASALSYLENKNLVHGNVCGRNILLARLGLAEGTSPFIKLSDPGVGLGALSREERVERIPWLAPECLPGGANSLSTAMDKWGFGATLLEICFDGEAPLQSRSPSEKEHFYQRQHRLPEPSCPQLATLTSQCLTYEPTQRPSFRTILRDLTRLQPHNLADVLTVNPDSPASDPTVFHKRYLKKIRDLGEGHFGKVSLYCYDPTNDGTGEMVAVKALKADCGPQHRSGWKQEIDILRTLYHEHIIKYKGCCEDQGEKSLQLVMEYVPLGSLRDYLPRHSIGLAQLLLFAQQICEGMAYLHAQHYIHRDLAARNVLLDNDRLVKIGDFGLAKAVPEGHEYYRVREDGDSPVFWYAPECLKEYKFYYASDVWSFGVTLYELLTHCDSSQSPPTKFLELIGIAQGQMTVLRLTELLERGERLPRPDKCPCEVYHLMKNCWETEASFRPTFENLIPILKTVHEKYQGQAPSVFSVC
Cytochrome P450 2C19, sequence (P33261 whole entry): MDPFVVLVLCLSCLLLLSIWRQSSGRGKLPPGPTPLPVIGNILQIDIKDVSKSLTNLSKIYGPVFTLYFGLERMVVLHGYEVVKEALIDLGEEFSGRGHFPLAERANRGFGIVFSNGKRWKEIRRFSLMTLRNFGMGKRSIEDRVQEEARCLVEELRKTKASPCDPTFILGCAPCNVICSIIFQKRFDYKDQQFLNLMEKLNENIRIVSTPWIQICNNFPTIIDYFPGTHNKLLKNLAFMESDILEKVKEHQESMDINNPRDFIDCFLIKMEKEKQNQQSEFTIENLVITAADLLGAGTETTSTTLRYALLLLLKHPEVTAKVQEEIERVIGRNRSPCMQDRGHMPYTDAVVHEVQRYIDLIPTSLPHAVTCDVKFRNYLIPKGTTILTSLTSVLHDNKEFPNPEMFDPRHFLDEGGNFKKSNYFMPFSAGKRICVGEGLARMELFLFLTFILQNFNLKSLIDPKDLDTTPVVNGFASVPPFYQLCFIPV

Regarding `O=C(Nc1nc2cccc(C3CCC4(CC3)CCN(C(=O)[C@@H]3CC3(F)F)CC4)n2n1)C1CC1`, the half-maximal inhibitory concentration (IC50) in series [1] was 3 nM; in series [2] it was 1000 nM; in [3], 26 nM; at Cytochrome P450 2C8 it was above 100000 nM; on Cytochrome P450 2C19 it was 4930 nM. For the same molecule, the Papp A→B at 2 h, 10 µM in series [4] came out at 4.29 ×10⁻⁶ cm/s. The Papp B→A at 2 h, 10 µM in series [5] was 29.1 ×10⁻⁶ cm/s. Further, the efflux ratio at 2 h, 10 µM in series [6] stood at 6.77. For the same molecule, the fraction unbound at 4 h, 2 µM worked out at 0.056 in [7] and 0.067 in series [8]. Further, the microsomal CLint at 1 µM in [9] and in [10] was below 9.6 µL/min/mg each time. For the same molecule, the CLH in series [11] is 40.6 µL/min/mg; in series [12], below 6.4 µL/min/mg. The half-life in series [13] was 4.74 h. This molecule also had a clearance in series [14] of 14.9 mL/min/kg. The molecule also displayed an AUC at 24 h in series [15] of 18 µM·h. Further, the result with Mus musculus was Active. Also, the highest level in “in vivo” (Cmax at 24 h) was 7.38 µM.
For `O=C(Nc1nc2cccc([C@H]3CC[C@@H](NC(=O)[C@@H]4CC4(F)F)CC3)n2n1)C1CC1`, the IC50 in series [1] is 2 nM; in series [2], 957 nM; in series [3] it was 24 nM; against Cytochrome P450 2C8, above 100000 nM; against Cytochrome P450 2C19, 75000 nM. For the same molecule, the Papp A→B at 2 h, 10 µM in series [4] is 2.78 ×10⁻⁶ cm/s. The basolateral-to-apical permeability (Papp B→A) at 2 h, 10 µM in series [5] turned out to be 29.2 ×10⁻⁶ cm/s. Further, the efflux ratio at 2 h, 10 µM in [6] came out at 10.5. The fraction unbound at 4 h, 2 µM in series [7] came to 0.085; in series [8], 0.156. Further, the microsomal CLint at 1 µM in series [9] was 16.9 µL/min/mg; in series [10], below 9.6 µL/min/mg. The figures for the CLH in [11] and in series [12] were 34.2 µL/min/mg and below 10.8 µL/min/mg, respectively. For the same molecule, the half-life in series [13] is 1.5 h. Besides, the clearance in series [14] is 9.58 mL/min/kg. The molecule also registered an exposure (AUC) at 24 h in series [15] of 54.1 µM·h. The concentration in the series “in vivo” peaked (Cmax at 24 h) at 25.7 µM.
For `O=C(Nc1nc2cccc(C3CCC4(CC3)CCN(C(=O)[C@@H]3CC3(F)F)C4)n2n1)C1CC1` (stereo not given in full), the concentration for half-maximal inhibition (IC50) in [1] was 31 nM; in series [2], 5760 nM; in series [3] it was 67 nM; at Cytochrome P450 2C8 it was above 100000 nM; at Cytochrome P450 2C19, 64300 nM. Also, the Papp A→B at 2 h, 10 µM in series [4] is 1.6 ×10⁻⁶ cm/s. Further, in [5], the Papp B→A at 2 h, 10 µM was 31.2 ×10⁻⁶ cm/s. Moreover, the efflux ratio at 2 h, 10 µM in series [6] is 19.5. The values for the unbound share (fraction unbound) at 4 h, 2 µM in [7] and in series [8] were 0.088 and 0.205, respectively. The microsomal CLint at 1 µM in series [9] was 15.7 µL/min/mg; in series [10], 11.3 µL/min/mg. The figures for the CLH in series [11] and in [12] were 134.3 µL/min/mg and 25.6 µL/min/mg, respectively.
For `O=C(Nc1nc2cccc(C3CCC4(CC3)CN(C(=O)[C@@H]3CC3(F)F)C4)n2n1)C1CC1`, the unbound share (fraction unbound) at 4 h, 2 µM turned out to be 0.176 in series [7] and 0.26 in [8]. Also, the microsomal CLint at 1 µM in series [9] and in [10] was below 9.6 µL/min/mg throughout. The CLH in series [11] is 9.1 µL/min/mg; in series [12], below 6.4 µL/min/mg. Also, in series [13], the half-life is 2.01 h. This molecule yielded a clearance in series [14] of 22.1 mL/min/kg. For the same molecule, the result in the series with Mus musculus was Active.

For orientation: IC50 means the concentration that gives 50% inhibition. One may read the Papp A→B as how fast a substance crosses the layer from the apical side. Usually Papp B→A stands for the apparent permeability from the basolateral to the apical side of a cell layer. One may read the efflux ratio as a quotient of directional permeabilities that is used to spot active efflux. One may read the fraction unbound as the share of the substance not bound to proteins or other matrix. A word on the clearance: it is a measure of how efficiently the substance is removed, as volume per time. As a reminder, the AUC is concentration integrated over time. One may read the Cmax as the highest concentration seen after dosing.

Values taken from ChEMBL document CHEMBL5150077, “Identification of TUL01101: A Novel Potent and Selective JAK1 Inhibitor for the Treatment of Rheumatoid Arthritis” (J Med Chem, 2022).
